Toxic doses and inconclusive results are not listed.
System: L1210 leukemia ip in BDF1 mice, survival T/C
Assay: NCI In Vivo Anticancer Drug Screen. Data for tumor model L1210 Leukemia (intraperitoneal) in B6D2F1 (BDF1) mice
Conditions: endpoint: mean survival time, higher = longer survival
Method in brief: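 Read-out is survival time, reported as the treated-group measurement over the vehicle-control measurement.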

[1] = dose: 50.0 mg/kg/injection, schedule: Q01DX009 (ip), vehicle: Klucel (hydroxypropylcellulose) (HPC)
[2] = dose: 100.0 mg/kg/injection, schedule: Q01DX009 (ip), vehicle: Klucel (hydroxypropylcellulose) (HPC)
[3] = dose: 200.0 mg/kg/injection, schedule: Q01DX009 (ip), vehicle: Klucel (hydroxypropylcellulose) (HPC)
[4] = dose: 400.0 mg/kg/injection, schedule: Q01DX009 (ip), vehicle: Klucel (hydroxypropylcellulose) (HPC)
[5] = dose: 100.0 mg/kg/injection, schedule: Q04DX003 (ip), vehicle: Klucel (hydroxypropylcellulose) (HPC)
[6] = dose: 200.0 mg/kg/injection, schedule: Q04DX003 (ip), vehicle: Klucel (hydroxypropylcellulose) (HPC)
[7] = dose: 400.0 mg/kg/injection, schedule: Q04DX003 (ip), vehicle: Klucel (hydroxypropylcellulose) (HPC)
[8] = dose: 100.0 mg/kg/injection, schedule: Q01DX001 (ip), vehicle: saline
[9] = dose: 200.0 mg/kg/injection, schedule: Q01DX001 (ip), vehicle: saline
[10] = dose: 50.0 mg/kg/injection, schedule: Q01DX001 (ip), vehicle: carboxymethylcellulose (CMC)
[11] = dose: 100.0 mg/kg/injection, schedule: Q01DX001 (ip), vehicle: carboxymethylcellulose (CMC)
[12] = dose: 200.0 mg/kg/injection, schedule: Q01DX001 (ip), vehicle: carboxymethylcellulose (CMC)
[13] = dose: 400.0 mg/kg/injection, schedule: Q01DX001 (ip), vehicle: carboxymethylcellulose (CMC)
[14] = dose: 100.0 mg/kg/injection, schedule: Q01DX009 (ip), vehicle: saline with Tween-80
[15] = dose: 200.0 mg/kg/injection, schedule: Q01DX009 (ip), vehicle: saline with Tween-80
[16] = dose: 100.0 mg/kg/injection, schedule: Q04DX003 (ip), vehicle: saline with Tween-80
[17] = dose: 200.0 mg/kg/injection, schedule: Q04DX003 (ip), vehicle: saline with Tween-80

`O=C1OC(c2ccccc2)=N/C1=C1\OC(=O)c2ccccc21` was tested, and the T/C [1] was 92 % of control, the T/C [2] was 86 % of control and the T/C [3] was 92 % of control. For the same compound, the T/C [4] was 89 % of control.
In the case of `CC(C)(C)NC(C1=CC(C)(C)c2ccccc2C1=O)c1ccccc1` (stereo unspecified), the T/C [2] is reported as 98 % of control, the T/C [5] is reported as 110 % of control and the T/C [3] is reported as 104 % of control. The T/C [6] was 102 % of control, the T/C [4] was 101 % of control and the T/C [7] was 102 % of control.
For `CCc1ccncc1`, the T/C [8] was 101 % of control and the T/C [9] was 88 % of control.
In the case of `Oc1ccccc1/C=N/Sc1ccccc1.Oc1ccccc1/C=N/Sc1ccccc1.[Cl][Pd][Cl]`, the T/C (dose: 12.5 mg/kg/injection, schedule: Q04DX002 (ip), vehicle: Klucel (hydroxypropylcellulose) (HPC)) is reported as 90 % of control, the T/C (dose: 25.0 mg/kg/injection, schedule: Q04DX002 (ip), vehicle: Klucel (hydroxypropylcellulose) (HPC)) is reported as 101 % of control and the T/C (dose: 50.0 mg/kg/injection, schedule: Q04DX002 (ip), vehicle: Klucel (hydroxypropylcellulose) (HPC)) is reported as 111 % of control.
With `C#CC(C)(C)NC(=O)NC(C)(C)C` the T/C (dose: 100.0 mg/kg/injection, schedule: Q04DX002 (ip), vehicle: gum acacia) was 112 % of control, the T/C (dose: 200.0 mg/kg/injection, schedule: Q04DX002 (ip), vehicle: gum acacia) was 91 % of control and the T/C (dose: 400.0 mg/kg/injection, schedule: Q04DX002 (ip), vehicle: gum acacia) was 102 % of control.
In the case of `Nc1nc(Cl)nc2c1ncn2C1OC(CO)C(O)C1O` (stereo unspecified), the T/C (dose: 25.0 mg/kg/injection, schedule: Q01DX009 (ip), vehicle: Klucel (hydroxypropylcellulose) (HPC)) is reported as 102 % of control, the T/C (dose: 37.5 mg/kg/injection, schedule: Q01DX009 (ip), vehicle: saline with Tween-80) is reported as 113 % of control and the T/C [10] is reported as 93 % of control. The T/C [1] was 114 % of control, the T/C (dose: 50.0 mg/kg/injection, schedule: Q04DX003 (ip), vehicle: saline) was 108 % of control and the T/C [11] was 96 % of control. For the same compound, the T/C [8] was 92 % of control, the T/C [2] was 123 % of control and the T/C (dose: 100.0 mg/kg/injection, schedule: Q01DX009 (ip), vehicle: saline) was 156 % of control. For the same compound, the T/C (dose: 100.0 mg/kg/injection, schedule: Q04DX003 (ip), vehicle: saline) was 113 % of control, the T/C [12] was 98 % of control and the T/C [9] was 103 % of control. The T/C (dose: 225.0 mg/kg/injection, schedule: Q01DX009 (ip), vehicle: saline) was 121 % of control, the T/C (dose: 300.0 mg/kg/injection, schedule: Q04DX003 (ip), vehicle: saline) was 153 % of control and the T/C [13] was 118 % of control.
With `CC(C)C[C@H]1C(=O)N2CCC[C@H]2[C@]2(O)O[C@](NC(=O)[C@@H]3C=C4c5cccc6[nH]c(Br)c(c56)C[C@H]4N(C)C3)(C(C)C)C(=O)N12` the T/C [14] was 105 % of control and the T/C [15] was 106 % of control.
In the case of `CCCCCCCCCCS(=O)(=O)CCS(=O)(=O)CCCCCCCCCC`, the T/C [5] is reported as 97 % of control, the T/C [6] is reported as 95 % of control and the T/C [7] is reported as 97 % of control.
For `O=C(Nc1ccc(C2=NCCN2)cc1)C(=O)Nc1ccc(C2=NCCN2)cc1`, the T/C (dose: 15.0 mg/kg/injection, schedule: Q01DX Z (ip), vehicle: saline) was 101 % of control, the T/C (dose: 30.0 mg/kg/injection, schedule: Q01DX Z (ip), vehicle: saline) was 118 % of control and the T/C (dose: 60.0 mg/kg/injection, schedule: Q01DX Z (ip), vehicle: saline) was 124 % of control.
`CC12C=CC(CC1)C2OC(=O)c1ccccc1C(=O)O` (stereo unspecified) was tested, and the T/C [2] was 95 % of control, the T/C [5] was 94 % of control and the T/C [3] was 97 % of control. The T/C [6] was 108 % of control, the T/C [4] was 92 % of control and the T/C [7] was 92 % of control.
In the case of `CCCCNC(C)(C)CSS(=O)(=O)O`, the T/C (dose: 50.0 mg/kg/injection, schedule: Q01DX009 (ip), vehicle: saline with Tween-80) is reported as 97 % of control, the T/C [14] is reported as 109 % of control and the T/C [16] is reported as 96 % of control. For the same compound, the T/C [15] was 103 % of control, the T/C [17] was 96 % of control and the T/C (dose: 400.0 mg/kg/injection, schedule: Q01DX009 (ip), vehicle: saline with Tween-80) was 103 % of control. The T/C (dose: 400.0 mg/kg/injection, schedule: Q04DX003 (ip), vehicle: saline with Tween-80) was 96 % of control.
With `CCN(Cc1ccccc1)C(=S)NC1CCCCC1` the T/C (dose: 100.0 mg/kg/injection, schedule: Q04DX002 (ip), vehicle: saline) was 96 % of control, the T/C (dose: 200.0 mg/kg/injection, schedule: Q04DX002 (ip), vehicle: saline) was 96 % of control and the T/C (dose: 400.0 mg/kg/injection, schedule: Q04DX002 (ip), vehicle: saline) was 100 % of control.
`CCOc1ccc(/C=N/NC(=O)CCCCCCCCC(=O)N/N=C/c2ccc(OCC)c(OC)c2)cc1OC` was tested, and the T/C [2] was 95 % of control, the T/C [3] was 88 % of control and the T/C [4] was 97 % of control.
`CC(=O)OC1C(C)OC(n2cnc3c(=S)nc[nH]c32)C1OC(C)=O` (stereo unspecified) was tested, and the T/C [10] was 103 % of control, the T/C [11] was 101 % of control and the T/C [12] was 108 % of control. For the same compound, the T/C [13] was 106 % of control.
In the case of `CN(C)N=Nc1c(Cl)cc(Cl)cc1C(N)=O`, the T/C (dose: 100.0 mg/kg/injection, schedule: Q01DX001 (ip), vehicle: saline with Tween-80) is reported as 108 % of control, the T/C [14] is reported as 111 % of control and the T/C [16] is reported as 106 % of control. The T/C (dose: 133.0 mg/kg/injection, schedule: Q01DX009 (ip), vehicle: saline with Tween-80) was 123 % of control, the T/C (dose: 200.0 mg/kg/injection, schedule: Q01DX001 (ip), vehicle: saline with Tween-80) was 111 % of control and the T/C [15] was 165 % of control. For the same compound, the T/C (dose: 200.0 mg/kg/injection, schedule: Q01DX009 (ip), vehicle: saline) was 115 % of control, the T/C [17] was 110 % of control and the T/C (dose: 300.0 mg/kg/injection, schedule: Q01DX009 (ip), vehicle: saline with Tween-80) was 150 % of control. The T/C (dose: 300.0 mg/kg/injection, schedule: Q01DX009 (ip), vehicle: saline) was 100 % of control and the T/C (dose: 400.0 mg/kg/injection, schedule: Q01DX001 (ip), vehicle: saline with Tween-80) was 117 % of control.
In the case of `C/C(=N/Nc1ccc([N+](=O)[O-])cc1)c1ccncc1`, the T/C [1] is reported as 101 % of control, the T/C [2] is reported as 111 % of control and the T/C [3] is reported as 89 % of control. The T/C [4] was 105 % of control.
In the case of `COc1ccc(C(CC(=O)O)c2cc(OC)c(OC)c(OC)c2)cc1OC` (stereo unspecified), the T/C [11] is reported as 92 % of control, the T/C [12] is reported as 93 % of control and the T/C [13] is reported as 93 % of control.
In the case of `CCCCCCCCCCCCOC(=O)C(Cl)(Cl)Cl`, the T/C (dose: 100.0 mg/kg/injection, schedule: Q01DX001 (ip), vehicle: other) is reported as 93 % of control, the T/C (dose: 100.0 mg/kg/injection, schedule: Q04DX003 (ip), vehicle: other) is reported as 102 % of control and the T/C (dose: 200.0 mg/kg/injection, schedule: Q01DX001 (ip), vehicle: other) is reported as 96 % of control. The T/C (dose: 200.0 mg/kg/injection, schedule: Q04DX003 (ip), vehicle: other) was 96 % of control, the T/C (dose: 400.0 mg/kg/injection, schedule: Q01DX001 (ip), vehicle: other) was 93 % of control and the T/C (dose: 400.0 mg/kg/injection, schedule: Q04DX003 (ip), vehicle: other) was 97 % of control.
For `O=C1S/C(=C/c2ccccc2)C(=O)N1c1ccccc1`, the T/C (dose: 100.0 mg/kg/injection, schedule: Q01DX001 (ip), vehicle: Klucel (hydroxypropylcellulose) (HPC)) was 98 % of control, the T/C (dose: 200.0 mg/kg/injection, schedule: Q01DX001 (ip), vehicle: Klucel (hydroxypropylcellulose) (HPC)) was 90 % of control and the T/C (dose: 400.0 mg/kg/injection, schedule: Q01DX001 (ip), vehicle: Klucel (hydroxypropylcellulose) (HPC)) was 94 % of control.
In the case of `Cc1ccc(NC(=O)Nc2cccc(O)c2)c([N+](=O)[O-])c1`, the T/C [1] is reported as 98 % of control, the T/C [2] is reported as 102 % of control and the T/C [5] is reported as 103 % of control. For the same compound, the T/C [3] was 98 % of control, the T/C [6] was 106 % of control and the T/C [7] was 103 % of control.
With `c1ccc2c(c1)C1c3ccccc3C2C2COCC12` (stereo unspecified) the T/C [1] was 113 % of control, the T/C [2] was 108 % of control and the T/C [5] was 98 % of control. The T/C [6] was 100 % of control.

From PubChem BioAssay AID248 (DTP/NCI, 2004)
